# Data reported in US11986528B2, “Use of a mixture of lauroyl macrogolglyceride and polyethylene glycol as an excipient” (GATTEFOSSE SAS, priority 2020, dated 2024).
# What was measured:
# [1] = dissolution (liberation) of terfenadine from capsules, FIG. 4; type: physicochemical; conditions: after 120 minutes; dose 60 mg
# Procedure: Another active principle, terfenadine, was formulated with Gelucire® 44/14. The mixture was cast into a capsule in a manner that was similar to that of Example 1 above which used piroxicam.
# The dose was 60 mg, for a total of 680 mg of formulation.
# The graph of FIG. 4 was therefore obtained, illustrating the liberation L (%) of the active principle as a function of time t in minutes, in which: • the curve C1 (invention) corresponds to a mixture of terfenadine/Gelucire® 44/14/PEG 6000, in which the ratio by weight of Gelucire® 44/14/PEG 6000 is 65/35: • the curve C2 (invention) corresponds to a mixture of terfenadine/Gelucire® 44/14/PEG 6000, in which the ratio by weight of Gelucire® 44/14/PEG 6000 is 60/40; • the curve C3 (control 1) corresponds to a mixture of terfenadine/PEG 6000; • the curve C4 (control 2) corresponds to terfenadine alone.
# [2] = water at 25° C.; cited from earlier work
smiles,measurement,setting,value
CC(C)(C)c1ccc(C(O)CCCN2CCC(C(O)(c3ccccc3)c3ccccc3)CC2)cc1 (centres unmarked) [terfenadine],liberation L of terfenadine,[1],below 10%
same,solubility in water,[2],250 µg/mL
